Values after ≈ are worked out from the molar mass of the structure shown. Read-outs that look alike come from different tables or passages of the source. *1 amine or outer side, *2 acyl side, *3 side chain or, on linkers, in order; H or OH if unused. Where a SMILES comes first, the peptide text is derived from it. Side-chain parts run from the residue outwards. [ ]: non-standard residue; d: D form. The star is where a group is joined. γGlu = O=C(O)[C@H](CCC(=O)[*:2])N[*:1]; Palmitoyl = CCCCCCCCCCCCCCCC(=O)*; αMeK = C[C@](N)(CCCCN)C(=O)O; Aib = CC(C)(N)C(=O)O

A short description of series [1]: Solubility testing in buffer, HPLC-UV of supernatant. The series is classed as physicochemical. Conditions: buffer, target concentration 1.0 mg/mL. Here is the method: (§1) Solubility and chemical stability of peptidic compounds were assessed as described in Methods.
For series [2], the target named is T1, human GLP-1 receptor (hGLP-1 R) (Homo sapiens, UniProt P43220).
T1 construct: expressed in transfected cells
As to the kind of experiment: cAMP response (HTRF) of HEK-293 cells stably expressing human GLP-1 receptor. Type of series: cell-based. Conditions: Table 7; cAMP formation. Here is the method: (§2) cAMP content of cells was determined using a kit from Cisbio Corp. (cat. no. 62AM4PEC) based on HTRF (Homogenous Time Resolved Fluorescence). For preparation, cells were split into T175 culture flasks and grown overnight to near confluency in medium (DMEM/10% FBS). Medium was then removed and cells washed with PBS lacking calcium and magnesium, followed by proteinase treatment with accutase (Sigma-Aldrich cat. no. A6964). Detached cells were washed and resuspended in assay buffer (1×HBSS; 20 mM HEPES, 0.1% BSA, 2 mM IBMX) and cellular density determined. They were then diluted to 400000 cells/ml and 25 μl-aliquots dispensed into the wells of 96-well plates. For measurement, 25 μl of test compound in assay buffer was added to the wells, followed by incubation for 30 minutes at room temperature.
A general note: In TR-FRET formats the signal depends on donor and acceptor labels being close together.

Series [3] can be described thus: Chemical stability in solution, 7 days at 25° C., % remaining peptide. Type of series: physicochemical. Conditions: % remaining peptide after 7 days at 25° C. Here is the method:
The chemical stability is expressed as “% remaining peptide”.
as §1

Series [4] addresses T2, human GIP receptor (hGIP R) (Homo sapiens, UniProt P48546).
T2 construct: expressed in transfected cells
T2 sequence (P48546 22-466): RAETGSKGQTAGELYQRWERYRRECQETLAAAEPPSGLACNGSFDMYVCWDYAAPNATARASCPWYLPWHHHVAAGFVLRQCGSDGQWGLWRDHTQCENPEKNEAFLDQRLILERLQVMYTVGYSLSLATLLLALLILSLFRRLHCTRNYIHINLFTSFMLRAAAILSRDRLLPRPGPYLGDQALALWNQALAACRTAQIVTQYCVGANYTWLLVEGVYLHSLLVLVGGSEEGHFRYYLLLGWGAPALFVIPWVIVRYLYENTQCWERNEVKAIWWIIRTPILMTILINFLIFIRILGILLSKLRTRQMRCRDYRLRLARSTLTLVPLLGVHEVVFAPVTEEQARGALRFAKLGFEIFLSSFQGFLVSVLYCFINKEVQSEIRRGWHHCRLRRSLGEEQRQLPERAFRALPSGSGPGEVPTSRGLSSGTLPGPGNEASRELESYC
As to the kind of experiment: cAMP response (HTRF) of HEK-293 cells stably expressing human GIP receptor. The series is classed as cell-based. Conditions: Table 7; cAMP formation. Here is the method: as §2

Series [5] relates to non-fasted female diabetic dbdb-mice. The experiment in a line: Glucose lowering in non-fasted female diabetic dbdb-mice. The series is classed as in vivo. Conditions: 3 μg/kg s.c., at 240 min, kept to 480 min, baseline 20-22 mmol/l. The source says:
Female diabetic dbdb-mice of mean non-fasted glucose value of 20-22 mmol/l and a body weight of 42 g+/−0.6 g (SEM) were used. Mice were individually marked and were adapted to housing conditions for at least one week.
3-5 days prior to study start mice were assigned to groups and cages (4 mice per cage, 8 per group, control group 16) according to their non-fasted glucose values to ensure even distribution of lower and higher values between groups (stratification). On the study day, mice were weighed and dosed (t=0). Immediately prior to compound administration feed was removed while water remained available, and a first blood sample at a tail incision was drawn (baseline). Further blood samples were drawn at the tail incision at 30, 60, 90, 120, 240, 360, and 480 min.
Statistical analyses are performed with Everstat Version 6.0 based on SAS by 2-way-ANOVA on repeated measures, followed by Dunnett's post-hoc test against vehicle-control. Differences are considered statistically significant at the p<0.05 level.

Series [6] in a line: Subchronic effect on body weight in female diet-induced obese (DIO) C57BL/6NCrl mice (method 2). Type of series: in vivo. As to conditions: for Overall weight change: 3-week treatment, mean ± SEM; for decrease of body weight, relative change from baseline: 3 weeks. On the procedure: Female C57BL/6NCrl mice were housed in groups in a specific pathogen-free barrier facility on a 12 h light/dark cycle with free access to water and high-fat diet. After 14 weeks on high-fat diet, mice were stratified to treatment groups (n=8), so that each group had similar mean body weight. An aged-matched group with ad libitum access to standard chow and water was included as standard control group.
Before the experiment, mice were subcutaneously (s.c.) injected with vehicle solution and weighed for 3 days to acclimate them to the procedures. […] Body weight was recorded daily.
Statistical analyses were performed with Everstat 6.0 by repeated measures two-way ANOVA and Dunnett's post-hoc analyses (glucose profile) and 1-way-ANOVA, followed by Dunnett's post-hoc test (body weight, body fat). Differences versus vehicle-treated DIO control mice were considered statistically significant at the p<0.05 level.
Subchronic effects of SEQ ID NO: 11 after subcutaneous treatment on body weight in female diet-induced obese (DIO) C57BL/6NCrl mice (14 weeks of prefeeding with high-rat diet, method 2)
Female obese C57BL/6NCrl mice were treated for 3 weeks once daily subcutaneously in the late afternoon, prior at the end of the light phase (12 h lights on) with 3 μg/kg and 10 μg/kg SEQ ID NO: 11 or vehicle. Body weight was recorded daily.

The subject of a further series is female NMRI-mice. As to the kind of experiment: Gastric emptying and intestinal passage in female NMRI-mice. Type of series: in vivo. Here is the method:
Female NMRI-mice of a body weight between 20 and 30 g were used. Mice were adapted to housing conditions for at least one week.
Mice were overnight fasted, while water remained available all the time. On the study day, mice were weighed, single-caged and allowed access to 500 mg of feed for 30 min, while water was removed. At the end of the 30 min feeding period, remaining feed was removed and weighed. Then, the test compound/reference compound or its vehicle in the control group was administered subcutaneously. 60 min later, to allow the compound to reach relevant plasma exposure, a coloured, non-caloric bolus was instilled via gavage into the stomach. After another 30 min, the animals were sacrificed and the stomach and the small intestine prepared. The filled stomach was weighed, emptied, carefully cleaned and dried and reweighed. The stomach content, calculated as weight of filled subtracted by the weight of emptied stomach, indicated the degree of gastric emptying. The small intestine was straightened without force and measured in length. Then the distance from the gastric beginning of the gut to the tip of the farthest travelled intestinal content bolus was measured. The intestinal passage was given as ratio in percent of the latter distance and the total length of the small intestine.
Statistical analyses were performed with Everstat 6.0 by 1-way-ANOVA, followed by Dunnett's as post-hoc test. Dunnett's Test was applied to compare versus vehicle control. Differences were considered statistically significant at the p<0.05 level.
Female NMRI-mice, weighing on average 25-30 g, received 1, 10 and 100 μg/kg of SEQ ID NO: 11, or phosphate buffered saline (vehicle control) subcutaneously, 30 min prior to the administration of the coloured bolus. 30 min later, the assessment of stomach contents and intestinal passage was done (FIG. 8).

T1 sequence (P43220 24-463): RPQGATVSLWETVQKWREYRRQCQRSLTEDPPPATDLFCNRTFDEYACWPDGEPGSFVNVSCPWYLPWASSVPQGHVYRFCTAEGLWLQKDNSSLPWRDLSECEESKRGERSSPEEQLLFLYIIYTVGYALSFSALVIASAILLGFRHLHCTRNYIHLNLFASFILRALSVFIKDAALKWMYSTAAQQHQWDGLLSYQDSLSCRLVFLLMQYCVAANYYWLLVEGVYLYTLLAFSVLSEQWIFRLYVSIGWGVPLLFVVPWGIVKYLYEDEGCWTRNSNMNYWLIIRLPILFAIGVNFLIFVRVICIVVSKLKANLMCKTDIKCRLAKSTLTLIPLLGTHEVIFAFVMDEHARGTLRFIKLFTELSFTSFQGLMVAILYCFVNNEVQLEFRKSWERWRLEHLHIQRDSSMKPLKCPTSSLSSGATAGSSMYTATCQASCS

Regarding `CCCCCCCCCCCCCCCC(=O)N[C@@H](CCC(=O)NCCCC[C@H](NC(=O)[C@H](CCC(N)=O)NC(=O)[C@@H](NC(=O)[C@H](CO)NC(=O)[C@H](CC(C)C)NC(=O)[C@H](CC(=O)O)NC(=O)[C@H](CO)NC(=O)[C@@H](NC(=O)[C@H](Cc1ccccc1)NC(=O)[C@@H](NC(=O)CNC(=O)[C@H](CCC(=O)O)NC(=O)C(C)(C)NC(=O)[C@@H](N)Cc1ccc(O)cc1)[C@@H](C)O)[C@@H](C)O)[C@@H](C)CC)C(=O)N[C@@H](CCC(=O)O)C(=O)N[C@@H](CCC(=O)O)C(=O)N[C@@H](CCCNC(=N)N)C(=O)N[C@@H](C)C(=O)N[C@@H](C)C(=O)N[C@@](C)(CCCCN)C(=O)N[C@@H](CCC(=O)O)C(=O)N[C@@H](Cc1ccccc1)C(=O)N[C@H](C(=O)N[C@@H](CCC(=O)O)C(=O)N[C@@H](Cc1c[nH]c2ccccc12)C(=O)N[C@@H](CC(C)C)C(=O)N[C@@H](CCCCN)C(=O)N[C@@H](CC(N)=O)C(=O)N[C@H](C(=O)NCC(=O)N1CCC[C@H]1C(=O)N[C@@H](CO)C(=O)N[C@@H](CO)C(=O)NCC(=O)N[C@@H](C)C(=O)N1CCC[C@H]1C(=O)N1CCC[C@H]1C(=O)N1CCC[C@H]1C(=O)N[C@@H](CO)C(N)=O)[C@@H](C)O)[C@@H](C)CC)C(=O)O` [SEQ ID NO: 11, Y-Aib-E-G-T-F-T-S-D-L-S-I-Q-K(γE-x53)-E-E-R-A-A-(S)MeLys-E-F-I-E-W-L-K-N-T-G-P-S-S-G-A-P-P-P-S-NH2] (H-Y[Aib]EGTFTSDLSIQK([γGlu-Palmitoyl])EERAA[αMeK]EFIEWLKNTGPSSGAPPPS-NH2), the solubility at 2 h was found to be 964 µg/mL (≈ 208 µM) in series [1] (pH 4.5, read-out: Solubility (pH 4.5)) and 900 µg/mL (≈ 194 µM) in series [1] (pH 7.4, read-out: Solubility (pH 7.4)). In addition, the half-maximal effective concentration (EC50) in series [2] came out at 5.1 pM; in series [4], 7 pM. For the same compound, in series [3] (pH 4.5), the “Stability (pH 4.5)” value came out at 100.0%. Moreover, in series [3] (pH 7.4), the “Stability (pH 7.4)” value is on record as 99.0%. Further, the “maximal effect, glucose reduction” value in series [5] was about 11 mmol/L. Moreover, the Overall weight change was -3.2 ± 0.6 g in series [6] (3 μg/kg s.c. once daily) and -6.8 ± 0.7 g in series [6] (10 μg/kg s.c. once daily). Also, the “decrease of body weight, relative change from baseline” value in series [6] (3 μg/kg s.c. once daily) is 7.6%; in series [6] (10 μg/kg s.c. once daily) it was 17.4%. Besides, the entries for the “increase of remaining gastric contents” value with female NMRI-mice (1 μg/kg s.c.), in the series with female NMRI-mice (10 μg/kg s.c.) and in the series with female NMRI-mice (100 μg/kg s.c.) were 17%, 97% and 106%, respectively. Further, the “reduction of intestinal passage” value in the series on female NMRI-mice (1 μg/kg s.c.) worked out at 44%; in the series on female NMRI-mice (10 μg/kg s.c.), 68%; in the series with female NMRI-mice (100 μg/kg s.c.), 69%.

As usually defined, the solubility is the concentration that dissolves in the medium under given conditions. A word on the EC50: it is the midpoint of the concentration-response curve.

Values taken from US9745360B2 (Sanofi, priority 2012, dated 2017).
